According to ChEMBL document CHEMBL1201862, “PubChem BioAssay data set” (2004):
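The compound was tested at five concentrations on cells cultured in 96-well plates, with a 48-hour exposure period. Abbreviation: GI50, concentration required for 50% inhibition of growth.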 The source made the active and inactive calls. Rule as the data show it: active = GI50 up to about 1.1 µM and inactive = higher.

Key:
Assay in all cases: growth of human tumour cells (NCI), 48 h
HCT-116 = tested on: HCT-116
BT-549 = tested on: BT-549
UACC-257 = tested on: UACC-257
COLO 205 = tested on: COLO 205
UACC-62 = tested on: UACC-62
M14 = tested on: M14
Malme-3M = tested on: Malme-3M
U-251 = tested on: U-251
PC-3 = tested on: PC-3
MDA-N = tested on: MDA-N
SN12C = tested on: SN12C
LOX IMVI = tested on: LOX IMVI
DU-145 = tested on: DU-145
OVCAR-5 = tested on: OVCAR-5
SK-MEL-28 = tested on: SK-MEL-28
OVCAR-4 = tested on: OVCAR-4
NCI-H226 = tested on: NCI-H226
OVCAR-3 = tested on: OVCAR-3
786-0 = tested on: 786-0
HOP-92 = tested on: HOP-92
SF-295 = tested on: SF-295
RPMI-8226 = tested on: RPMI-8226
NCI/ADR-RES = tested on: NCI/ADR-RES
SK-MEL-5 = tested on: SK-MEL-5
SNB-19 = tested on: SNB-19
SNB-75 = tested on: SNB-75
TK-10 = tested on: TK-10
SK-OV-3 = tested on: SK-OV-3
HCC 2998 = tested on: HCC 2998
SF-539 = tested on: SF-539
A498 = tested on: A498
NCI-H23 = tested on: NCI-H23
A549 = tested on: A549
MDA-MB-231 = tested on: MDA-MB-231
SK-MEL-2 = tested on: SK-MEL-2
CAKI-1 = tested on: CAKI-1
IGROV-1 = tested on: IGROV-1
SW-620 = tested on: SW-620
CCRF-CEM = tested on: CCRF-CEM
EKVX = tested on: EKVX
HL-60 = tested on: HL-60
MDA-MB-435 = tested on: MDA-MB-435
MOLT-4 = tested on: MOLT-4
SR = tested on: SR
KM12 = tested on: KM12
ACHN = tested on: ACHN
NCI-H460 = tested on: NCI-H460
NCI-H522 = tested on: NCI-H522
K562 = tested on: K562
MCF7 = tested on: MCF7
OVCAR-8 = tested on: OVCAR-8
RXF 393 = tested on: RXF 393
HCT-15 = tested on: HCT-15
UO-31 = tested on: UO-31
HT-29 = tested on: HT-29
HOP-62 = tested on: HOP-62
SF-268 = tested on: SF-268

C=C1c2nc3ccccc3n2C=C(c2ccc(Cl)cc2)N1c1ccccc1
GI50 (HCT-116): 14 µM (inactive)
GI50 (BT-549): 6.64 µM (inactive)
GI50 (UACC-257): 18.7 µM (inactive)
GI50 (COLO 205): 29.6 µM (inactive)
GI50 (UACC-62): 18.3 µM (inactive)
GI50 (M14): 16.3 µM (inactive)
GI50 (Malme-3M): 12.1 µM (inactive)
GI50 (U-251): 18.7 µM (inactive)
GI50 (PC-3): 26.4 µM (inactive)
GI50 (MDA-N): 33.1 µM (inactive)
GI50 (SN12C): 39.9 µM (inactive)
GI50 (LOX IMVI): 33.7 µM (inactive)
GI50 (DU-145): 32.5 µM (inactive)
GI50 (OVCAR-5): 26.5 µM (inactive)
GI50 (SK-MEL-28): 11.7 µM (inactive)
GI50 (OVCAR-4): 10.5 µM (inactive)
GI50 (NCI-H226): 0.031 µM (active)
GI50 (OVCAR-3): 17.2 µM (inactive)
GI50 (786-0): 13.3 µM (inactive)
GI50 (HOP-92): 20.7 µM (inactive)
GI50 (SF-295): 11.7 µM (inactive)
GI50 (RPMI-8226): 28 µM (inactive)
GI50 (NCI/ADR-RES): 12.2 µM (inactive)
GI50 (SK-MEL-5): 16.1 µM (inactive)
GI50 (SNB-19): 6.56 µM (inactive)
GI50 (SNB-75): 3.5 µM (inactive)
GI50 (TK-10): 12.4 µM (inactive)
GI50 (SK-OV-3): 16.9 µM (inactive)
GI50 (HCC 2998): 13.3 µM (inactive)
GI50 (SF-539): 13.2 µM (inactive)
GI50 (A498): 37.2 µM (inactive)
GI50 (NCI-H23): 11.7 µM (inactive)
GI50 (A549): 14.1 µM (inactive)
GI50 (MDA-MB-231): 27.2 µM (inactive)
GI50 (SK-MEL-2): 22.5 µM (inactive)
GI50 (CAKI-1): 15.7 µM (inactive)
GI50 (IGROV-1): 7.73 µM (inactive)
GI50 (SW-620): 25.3 µM (inactive)
GI50 (CCRF-CEM): > 100 µM (inactive)
GI50 (EKVX): 14.8 µM (inactive)
GI50 (HL-60): 41.1 µM (inactive)
GI50 (MDA-MB-435): 21 µM (inactive)
GI50 (MOLT-4): > 100 µM (inactive)
GI50 (SR): 5.94 µM (inactive)
GI50 (KM12): 12.3 µM (inactive)
GI50 (ACHN): 12.3 µM (inactive)
GI50 (NCI-H460): 12.4 µM (inactive)
GI50 (NCI-H522): 4 µM (inactive)
GI50 (K562): 40.6 µM (inactive)
GI50 (MCF7): 13 µM (inactive)
GI50 (OVCAR-8): 9.51 µM (inactive)
GI50 (RXF 393): 16.1 µM (inactive)
GI50 (HCT-15): 12.1 µM
GI50 (UO-31): 13.4 µM (inactive)

[N-]=[N+]=CC(=O)OC(CCl)CCl
GI50 (HCT-116): > 100 µM (inactive)
GI50 (BT-549): > 100 µM (inactive)
GI50 (UACC-257): > 100 µM (inactive)
GI50 (COLO 205): > 100 µM (inactive)
GI50 (UACC-62): > 100 µM (inactive)
GI50 (Malme-3M): > 100 µM (inactive)
GI50 (U-251): > 100 µM (inactive)
GI50 (PC-3): > 100 µM (inactive)
GI50 (MDA-N): > 100 µM (inactive)
GI50 (SN12C): > 100 µM (inactive)
GI50 (LOX IMVI): 76 µM (inactive)
GI50 (DU-145): > 100 µM (inactive)
GI50 (OVCAR-5): > 100 µM (inactive)
GI50 (SK-MEL-28): > 100 µM (inactive)
GI50 (OVCAR-4): > 100 µM (inactive)
GI50 (NCI-H226): > 100 µM (inactive)
GI50 (OVCAR-3): > 100 µM (inactive)
GI50 (786-0): > 100 µM (inactive)
GI50 (HOP-92): > 100 µM (inactive)
GI50 (SF-295): > 100 µM (inactive)
GI50 (RPMI-8226): > 100 µM (inactive)
GI50 (SK-MEL-5): 46.3 µM (inactive)
GI50 (SNB-19): > 100 µM (inactive)
GI50 (TK-10): > 100 µM (inactive)
GI50 (SK-OV-3): > 100 µM (inactive)
GI50 (HCC 2998): > 100 µM (inactive)
GI50 (HT-29): > 100 µM (inactive)
GI50 (A498): > 100 µM (inactive)
GI50 (NCI-H23): > 100 µM (inactive)
GI50 (MDA-MB-231): > 100 µM (inactive)
GI50 (SK-MEL-2): > 100 µM (inactive)
GI50 (IGROV-1): > 100 µM (inactive)
GI50 (SW-620): > 100 µM (inactive)
GI50 (CCRF-CEM): > 10 µM (inactive)
GI50 (EKVX): > 100 µM (inactive)
GI50 (HL-60): > 100 µM (inactive)
GI50 (MDA-MB-435): > 100 µM (inactive)
GI50 (MOLT-4): > 100 µM (inactive)
GI50 (SR): 37.5 µM (inactive)
GI50 (KM12): > 100 µM (inactive)
GI50 (ACHN): > 100 µM (inactive)
GI50 (NCI-H460): 25.2 µM (inactive)
GI50 (NCI-H522): > 100 µM (inactive)
GI50 (K562): > 100 µM (inactive)
GI50 (MCF7): > 100 µM (inactive)
GI50 (RXF 393): > 100 µM (inactive)
GI50 (HOP-62): > 100 µM (inactive)
GI50 (HCT-15): > 100 µM
GI50 (UO-31): > 100 µM (inactive)
GI50 (SF-268): > 100 µM (inactive)
